The source of these data is PubChem BioAssay (NCI).

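1) Cells in 96-well plates. 2) Compound, 48 h, 5 concentrations. 3) Linear interpolation between surrounding doses. 4) Unreached endpoint = highest concentration. TGI is the concentration that stops growth completely.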 A value given as a limit tells only on which side of the number the result lay.

Holding throughout (experiment): DTP human tumour cell line panel, 48 h
Test [1] concerns SF-539 CNS.
Test [2] has as its system CCRF-CEM leukemia.
For test [3], the system named is OVCAR-4 ovarian.
Test [4] relates to EKVX NSCLC.
For test [5], the system named is SF-295 CNS.
Test [6] relates to A549 NSCLC.
Test [7] has as its system TK-10 renal.
Test [8] relates to UO-31 renal.
Test [9] relates to MOLT-4 leukemia.
In test [10] the test system is M14 melanoma.

On to `CC(=O)c1cc2c(s1)C(=O)c1scc(C(C)=O)c1C2=O`, for which the TGI in test [1] is 2.44 µM; in [2], 0.59 µM; in test [3] it was 0.454 µM; in test [4] it was 1.34 µM; in test [5], 2.15 µM; in test [6], 2.71 µM. Also, the concentration for total growth inhibition (TGI) came out at 9.9 µM in [7] and 1.31 µM in test [8].
On to `O=C(Nc1ccccc1)c1cc(S(=O)(=O)Nc2n[nH]c(=O)[nH]2)c(SSc2cc(Cl)c(C(=O)Nc3ccccc3)cc2S(=O)(=O)Nc2n[nH]c(=O)[nH]2)cc1Cl`, for which the TGI in [2], in test [3], in test [9], in test [4], in [5] and in test [10] was > 100 µM throughout. Besides, the concentration for total growth inhibition (TGI) in test [6], in [7] and in test [8] was > 100 µM each time.
On to `N#Cc1ccc(/C=N/NC(=O)CSCC(=O)N/N=C/c2ccc(C#N)cc2)cc1`, for which the concentration for total growth inhibition (TGI) in test [1], in [3], in test [9], in test [4], in [5] and in test [10] was > 100 µM each time. In addition, the TGI in test [6], in test [7] and in test [8] was > 100 µM throughout.
For the molecule `CCn1nc(-c2ccccc2)c2c1N(C)c1ccccc1-n1c(-c3ccccc3)nnc1-2`, the TGI in [1] was 48 µM; in test [2] it was > 100 µM; in test [10] it was 32.1 µM; in [6] it was 29.9 µM; in [7], 31.1 µM; in test [8], 40.5 µM.
For `CC(C)(C)OC(=O)NC1CCCC1C(O)(C1=CCCC1)C1=CCCC1` (stereo not drawn), the concentration for total growth inhibition (TGI) in test [2], in test [3], in test [9], in test [10] and in test [6] was > 100 µM in each case.
As for `COc1ccc(OC)c(C(=O)/C=C/c2cc(O)c(O)cc2F)c1`, the total growth inhibition concentration (TGI) in test [1] was 0.626 µM; in [2], 15.7 µM; in [3] it was > 90 µM; in test [4] it was > 77.4 µM; in [5], 9.25 µM; in test [10], 19.7 µM. The results for the TGI in test [6], in test [7] and in test [8] were > 82.7 µM, 21.6 µM and 28.7 µM, respectively.
In the case of `O=C(O)CCC(C(=O)O)N1C(=O)c2ccccc2C1=O` (stereo not drawn), the TGI in test [2], in [3], in test [4], in test [5], in [10] and in test [6] was > 100 µM throughout. The TGI in test [7] and in test [8] was > 100 µM in each case.
On to `CCOC(=O)CN=C1Nc2ccccc2C(=O)N2CSCC12` (stereo not drawn), for which the TGI in [2], in test [3], in test [9], in test [4], in test [5] and in [10] was > 100 µM in each case. Also, the concentration for total growth inhibition (TGI) in test [6], in test [7] and in test [8] was > 100 µM in each case.
For the molecule `COC(=O)C1=C(O)C(C(=O)OC)[C@]2(O)[C@H](C(=O)OC)[C@H]1C[C@@H](c1cccc(OC)c1)[C@H]2C(=O)OC` (stereo partly drawn), the TGI in test [1] was > 100 µM; in [3], 96.4 µM; in [9] it was > 100 µM; in [4] it was > 100 µM; in [5] it was > 100 µM; in test [10], > 100 µM. In addition, the TGI in [6] was 75.3 µM; in test [7], > 100 µM; in [8], 34.7 µM.
In the case of `Cc1c(NC(=S)N/N=C\C(=N/NC(=S)Nc2c(C)n(C)n(-c3ccccc3)c2=O)c2ccccc2)c(=O)n(-c2ccccc2)n1C`, the TGI in test [1], in test [3], in test [9], in [4], in test [5] and in test [10] was > 100 µM throughout. Besides, the TGI in [6], in [7] and in test [8] was > 100 µM each time.
With `CC1(C)C2CCC1(C)C(N/C(=C(/C(Cl)=C(Cl)Cl)[N+](=O)[O-])n1nnc3ccccc31)C2` (stereo not drawn), the total growth inhibition concentration (TGI) in test [1] is > 100 µM; in test [2], > 100 µM; in [3], 60.7 µM; in test [4], > 100 µM; in test [5] it was 52.3 µM; in test [10] it was > 100 µM. The TGI in test [6] is > 100 µM; in test [8], 51 µM.
For the molecule `Cc1ccc(S(=O)(=O)N(CC(O)c2ccccc2)c2ccccc2F)cc1` (stereo not drawn), the concentration for total growth inhibition (TGI) in [1] is 30.7 µM; in [2] it was 64.5 µM; in [3] it was 27.4 µM; in test [4] it was > 100 µM; in [5], 37.9 µM; in [10], 31.9 µM. Further, the TGI stood at 41.4 µM in test [6], 45.8 µM in test [7] and 29.8 µM in test [8].
As to `COC(=O)c1c(O)ccc2c1c1c(n2Cc2ccc(OC)cc2)C(=O)c2ccccc2C1=O`, the TGI in test [1] was 29.1 µM; in [2], 0.296 µM; in test [3], 35.2 µM; in test [4] it was > 100 µM; in [5] it was 39 µM; in [10], 32.4 µM. Besides, the values for the total growth inhibition concentration (TGI) in test [6], in test [7] and in test [8] were 21.6 µM, > 100 µM and 29.2 µM, respectively.
`OCCN1CN(c2nc(N3CN(CCO)C3)nc(N3CN(CCO)C3)n2)C1`: the TGI in test [1] was 35 µM; in [2], 50.6 µM; in [3], 85.6 µM; in test [9], > 100 µM; in [4], 70.1 µM; in [10] it was 34.3 µM. The TGI in test [6] is > 100 µM; in test [7], 78.7 µM; in test [8] it was 56.1 µM.
As for `O=C(O)CS(=O)c1ccc2c3c(cccc13)C(=O)c1ccccc1-2` (stereo not drawn), the TGI in test [1], in [2], in test [3], in test [4], in test [5] and in test [10] was > 100 µM throughout. In addition, the total growth inhibition concentration (TGI) in [6], in test [7] and in [8] was > 100 µM each time.
On to `O=c1[nH]c(=S)c2cc3c(=S)[nH]c(=O)n(CCC(c4ccccc4)(c4ccccc4)c4ccccc4)c3nc2n1CCC(c1ccccc1)(c1ccccc1)c1ccccc1`, for which the TGI in test [2] is 27.7 µM; in test [3], > 100 µM; in test [9] it was 84.1 µM; in [4] it was > 100 µM; in [5] it was > 100 µM; in [10] it was > 100 µM. In addition, the TGI in test [6], in [7] and in test [8] was > 100 µM throughout.
As to `CC1(C)CC(=O)C2=C(C1)NC(SCC(=O)O)=C(C#N)C2c1ccc(Br)cc1` (stereo not drawn), the TGI in test [2], in test [3], in test [4], in [5], in [10] and in test [6] was > 100 µM in each case. Besides, the values for the TGI in test [7] and in [8] were > 100 µM and 15.6 µM, respectively.
On to `Cc1ccc(S(=O)(=O)NC(=O)NC(Cc2ccccc2)C(=O)O)cc1` (stereo not drawn), for which the concentration for total growth inhibition (TGI) in test [1], in [2], in test [3], in test [9], in test [5] and in test [10] was > 100 µM each time. Besides, the total growth inhibition concentration (TGI) in test [6], in [7] and in test [8] was > 100 µM each time.
For the molecule `CN1[C@@H]2CCCC[C@H]2N(C)P1(=O)C(O)/C=C/c1ccccc1` (stereo partly drawn), the TGI in [2], in test [3], in [9], in [4], in test [5] and in test [10] was > 100 µM in each case. The total growth inhibition concentration (TGI) in test [6], in test [7] and in test [8] was > 100 µM each time.
Take `CCOC(O)C(F)(F)F` (stereo not drawn): the TGI in [2], in [9], in [5], in [10], in test [6] and in test [7] was > 100 µM each time. Moreover, the concentration for total growth inhibition (TGI) in test [8] is > 100 µM.
`N#CN=C1c2ccccc2C(=NC#N)c2cc(CO)ccc21`: the TGI in test [1] is > 100 µM; in test [3], > 100 µM; in test [9], 59 µM; in [4], > 100 µM; in test [5], > 100 µM; in test [10] it was > 100 µM. The total growth inhibition concentration (TGI) in test [6], in test [7] and in test [8] was > 100 µM throughout.
For `Nc1nc2cc(CNc3ccc(C(=O)O)cc3)ccc2nc1-c1ccccc1`, the total growth inhibition concentration (TGI) in test [1], in test [2], in test [3], in test [9], in [5] and in test [10] was > 100 µM in each case. Besides, the TGI in test [6], in test [7] and in test [8] was > 100 µM each time.
As for `N#CC(c1nc2ccccc2s1)c1nc(Cl)ncc1Br` (stereo not drawn), the total growth inhibition concentration (TGI) is 82 µM in test [1]; > 100 µM in [3]; > 100 µM in test [9]; > 100 µM in [4]; > 100 µM in [5]; > 100 µM in test [10]. Moreover, the concentration for total growth inhibition (TGI) in test [6], in [7] and in test [8] was > 100 µM each time.
Consider `NC(Cc1ccccc1)=NCC(=O)O`, for which the concentration for total growth inhibition (TGI) in test [2], in test [3], in test [9], in test [4], in test [5] and in [10] was > 100 µM in each case. Besides, the TGI in [6], in test [7] and in test [8] was > 100 µM each time.
`CC(C)=CC(C)C(C(O)CCC1(c2ccoc2)OCCO1)S(=O)(=O)c1ccccc1` (stereo not drawn): the TGI in test [1], in test [2], in test [3], in test [4], in test [5] and in [10] was > 100 µM each time. The concentration for total growth inhibition (TGI) in test [6], in test [7] and in [8] was > 100 µM throughout.
Consider `COC(=O)c1c(C)ccc2c(O)c3c(cc12)C(=O)c1c2c(cc(O)c1C3=O)C1(C)OC(C)(O2)C(O)C(N(C)C)C1O` (stereo not drawn), for which the total growth inhibition concentration (TGI) came out at 12.8 µM in test [1]; 8.81 µM in test [3]; 3.2 µM in test [9]; 8.75 µM in [4]; 25.1 µM in test [5]; 10.4 µM in [10]. The figures for the TGI in test [7] and in test [8] were 2.68 µM and 9.27 µM, respectively.
Consider `NNC(=Nc1ccccc1)SCc1ccccc1`, for which the TGI in test [1], in test [2], in [3], in [9], in test [5] and in test [10] was > 100 µM throughout. In addition, the TGI in test [6] and in test [8] was > 100 µM throughout.
Take `Cc1c(C#N)c2nnn(-c3ccc([N+](=O)[O-])cc3)c(=O)n2c1-c1ccccc1`: the TGI was 28.1 µM in test [1]; > 100 µM in [2]; 27.5 µM in test [3]; 32 µM in test [4]; 14 µM in [5]; 25 µM in test [10]. For the same molecule, the TGI in [6] is > 100 µM; in test [7], > 100 µM; in [8] it was 25.5 µM.
For the molecule `CCOC(=O)c1[nH]cnc1/N=N/N(C)N`, the total growth inhibition concentration (TGI) in test [1], in test [3], in test [9], in test [4], in test [5] and in test [10] was > 100 µM each time. The TGI in test [6], in test [7] and in [8] was > 100 µM in each case.
On to `c1nncn1C12C3C4C5C3C1C5C42` (stereo not drawn), for which the TGI in [1], in test [2], in [9], in [4], in test [5] and in test [6] was > 100 µM throughout. Besides, the TGI in [7] was > 100 µM.

As a reminder, the TGI is the concentration at which net growth stops. Low values mean more potent growth arrest, high ones less potent growth arrest.
